Source: US7442501B2, “SQV nucleic acids and polypeptides” (Massachusetts Institute of Technology, priority 2002, dated 2008)

Legend:
[1] = target: T1, chondroitin synthase (Caenorhabditis elegans, UniProt Q7Z1Z1); experiment: GalNAcT (N-acetylgalactosamyl transferase) assay of chondroitin synthase activity in worm protein extracts; assay type: biochemical
T1 construct: wild-type (N2) animals were used to prepare worm protein extracts; from tissue; host or cells: whole C. elegans hermaphrodites (young adults), sonicated protein extract
T1 sequence (Q7Z1Z1 1-736): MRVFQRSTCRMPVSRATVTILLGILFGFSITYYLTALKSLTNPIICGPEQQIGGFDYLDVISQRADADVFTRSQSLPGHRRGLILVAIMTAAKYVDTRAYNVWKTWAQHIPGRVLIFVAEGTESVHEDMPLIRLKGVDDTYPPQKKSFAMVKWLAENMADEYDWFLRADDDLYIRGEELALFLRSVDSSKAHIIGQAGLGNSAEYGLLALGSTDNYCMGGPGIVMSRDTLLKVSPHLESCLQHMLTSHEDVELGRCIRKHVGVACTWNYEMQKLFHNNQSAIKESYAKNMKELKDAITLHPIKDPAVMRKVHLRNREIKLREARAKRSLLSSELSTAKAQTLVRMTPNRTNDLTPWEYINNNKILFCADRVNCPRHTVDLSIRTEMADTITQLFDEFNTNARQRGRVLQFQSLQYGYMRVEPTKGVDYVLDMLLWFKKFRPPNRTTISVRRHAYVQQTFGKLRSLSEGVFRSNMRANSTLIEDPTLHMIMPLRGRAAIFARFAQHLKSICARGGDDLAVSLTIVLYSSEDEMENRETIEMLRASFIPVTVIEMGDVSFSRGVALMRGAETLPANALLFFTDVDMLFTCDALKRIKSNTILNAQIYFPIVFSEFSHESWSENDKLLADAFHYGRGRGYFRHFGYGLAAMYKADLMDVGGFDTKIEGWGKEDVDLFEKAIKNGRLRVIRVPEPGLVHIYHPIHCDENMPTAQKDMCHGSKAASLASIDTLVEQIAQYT
Method: (§1) sqv-5(n3611), sqv-5(n3611)/hT2, and wild-type (N2) animals were used to prepare worm protein extracts. These extracts were tested for chondroitin synthase activity using standard methods, for example, in DeAngelis et al., (J. Biol. Chem. 27:24124-24129, 2000).
(§2) A desulfated chondroitin acceptor was used for the GalNAcT (N-acetylgalactosamyl transferase) assay. Desulfated and β-glucuronidase-treated chondroitin acceptor was used for the GlcAT (glucuronyl transferase) assay.
(§3) The enzymatic activity of SQV-5 was assayed as follows. SQV-5(n3611), sqv-5(n3611)/hT2, and wild-type N2 hermaphrodites were picked as L4 larvae by visual examination of the vulva using a dissecting microscope. The worms staged were allowed to grow for an additional twenty-three to twenty-seven hours at 22° C., re-examined, then transferred to 1.7-ml plastic tubes containing sterile water. The staged worms were washed once with water and twice with 50 mM Tris, pH 7.5, then frozen in a 50 μl volume using liquid nitrogen, and stored at −70° C.
(§4) Worm extracts were assayed for GIcAT glucoronosyltransferase activity by combining 1.3×10^5 cpm UDP-^3H-glucuronic acid donor (NEN), 6 μg β-glucuronidase-treated chondroitin acceptor, and 2.7 μg worm extract in a 25 μl reaction volume containing 0.05% Triton X-100, 10 mM MnCl2, and 100 μM ATP, pH 6.5. GalNAcT activity was detected by combining 1.3 to 3×10^5 cpm UDP-^3H-GalNAc donor (NEN), 12 μg chondroitin acceptor, and 6.7 μg worm extract in a 25 μl reaction volume containing 0.05% Triton X-100 and 10 mM MnCl2, pH 6.5. […] Pelleted material was resuspended in water and counted by liquid scintillation.
(§5) The chondroitin acceptor used was prepared as follows. […] Uronic acid concentration of both preparations was determined by the Carbazole method (Bitter, et al., Anal. Biochem. 4:330-334, 1962).

[2] = test system: chondroitin synthase; experiment: as above; assay type: biochemical; details: extract genotype sqv-5/sqv-5 (sqv-5(n3611))
Method: as §1, §2, §3, §4, §5

Question: CC(=O)N[C@H]1[C@@H](OP(=O)(O)OP(=O)(O)OC[C@H]2O[C@@H](n3ccc(=O)[nH]c3=O)[C@H](O)[C@@H]2O)O[C@H](CO)[C@H](O)[C@@H]1O [UDP-N-acetylgalactosamine] was tested. Which CPM ([1]; extract genotype +/+ (wild-type)) did it give?
Answer: 171 CPM

Question: And the CPM ([1]; extract genotype +/sqv-5 (sqv-5(n3611)/hT2))?
Answer: 134 CPM

Question: What about the CPM [2] of the same molecule?
Answer: <0 CPM
